# Test results from US5242680A, “Thiol-reactive maleimido-based radiolabeling reagents” (Merck & Co., Inc., priority 1991, dated 1993).
# Tests used:
# [1] = molecular target: T1, PTH receptor (Homo sapiens, UniProt Q03431); experiment: PTH receptor binding, human osteosarcoma B10 cell line (SaOS-2/B10); conditions: inhibiting binding of 95 pM 125I-[Nle8,18,Tyr34]bPTH(1-34)NH2 (footnote a), mean ± SEM, at least three experiments, read-out: Binding Kb
# T1 construct: endogenous in cells; host or cells: SaOS-2/B10 human osteosarcoma cells
# T1 sequence (Q03431 27-593): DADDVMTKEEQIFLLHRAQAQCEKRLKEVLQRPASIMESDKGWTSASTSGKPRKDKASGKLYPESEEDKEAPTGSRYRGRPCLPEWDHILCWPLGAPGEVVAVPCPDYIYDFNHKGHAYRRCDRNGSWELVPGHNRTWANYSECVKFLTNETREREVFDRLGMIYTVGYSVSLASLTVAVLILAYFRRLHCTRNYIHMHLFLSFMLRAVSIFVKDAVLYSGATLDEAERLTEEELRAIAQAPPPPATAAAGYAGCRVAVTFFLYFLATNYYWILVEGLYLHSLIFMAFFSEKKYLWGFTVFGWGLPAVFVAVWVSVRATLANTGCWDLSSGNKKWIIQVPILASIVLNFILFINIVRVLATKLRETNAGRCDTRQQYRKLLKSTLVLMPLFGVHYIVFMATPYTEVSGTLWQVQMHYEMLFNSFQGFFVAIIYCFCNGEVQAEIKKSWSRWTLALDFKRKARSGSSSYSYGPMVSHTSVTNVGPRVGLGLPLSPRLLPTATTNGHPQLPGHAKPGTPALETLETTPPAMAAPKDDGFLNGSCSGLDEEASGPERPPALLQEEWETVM
# Procedure: (§1) SaSO-2/B10 cells cultures. The details of maintenance of this cell line in culture were reported previously (see Chorev, M., et al., Intl. J. Peptide & Protein Res. 36, 465-470 (1990)).
# (§2) PTH Receptor Binding and Adenylate Cyclase Assays. Kidney-based assays were performed with bovind renal cortical membranes following the procedures previously described (see Goldman, M. E., et al., Endocrinol. 123, 1468-1475 (1988)). Bone-based assays were performed with human SaOS-2/B10 cell cultures. Cyclic AMP was measured using the reported procedure (see Rodan, S. B., et al., J. Clin. Invest. 72, 1511-1515 (1983)), including modifications reported previously (see Chorev. M., et al., Intl. J. Peptide & Protein Res. 36, 465-470 (1990)). Receptor binding affinities for PTHrP analogs were obtained using cells plated in 24-wall dished in RPMI 1640 medium supplemented with 1% BSA, 20 mM HEPES, pH 7.5, and 0.1% azide. [Nle^8,^18, mono-^123 I-Tyr^4 ]bPTH(1-34)NH2 (50,000 cpm/well) was added to confluent monolayers in the absence or presence of varying amounts of analog in a final volume of 0.25 ml. Cultures were incubated at room temperature for 4 hours. Binding reactions were terminated by placing the cultures on ice and washing 4 times with ice cold phosphate buffered saline. Radioactivity associated with the cells was recovered by dissolving the cells in 1 ml of 1N NaOH.
# (§3) Data analysis. Inhibition constants for binding (Kb) and adenylate cyclase (Kl) were calculated following a published method (see Cheng, Y. C., et al., Biochem. Pharmacol. 22, 3099-3108 (1973)).
# [2] = molecular target: T2, PTH receptor (Bos taurus, UniProt Q1LZF7); experiment: PTH receptor binding, bovine renal cortical membranes; conditions: inhibiting binding of 25 nM 125I-[Nle8,18,Tyr34]bPTH(1-34)NH2 (footnote c), mean ± SEM, at least three experiments, read-out: Binding Kb
# T2 construct: from tissue; host or cells: bovine renal cortical membranes
# T2 sequence (Q1LZF7 29-589): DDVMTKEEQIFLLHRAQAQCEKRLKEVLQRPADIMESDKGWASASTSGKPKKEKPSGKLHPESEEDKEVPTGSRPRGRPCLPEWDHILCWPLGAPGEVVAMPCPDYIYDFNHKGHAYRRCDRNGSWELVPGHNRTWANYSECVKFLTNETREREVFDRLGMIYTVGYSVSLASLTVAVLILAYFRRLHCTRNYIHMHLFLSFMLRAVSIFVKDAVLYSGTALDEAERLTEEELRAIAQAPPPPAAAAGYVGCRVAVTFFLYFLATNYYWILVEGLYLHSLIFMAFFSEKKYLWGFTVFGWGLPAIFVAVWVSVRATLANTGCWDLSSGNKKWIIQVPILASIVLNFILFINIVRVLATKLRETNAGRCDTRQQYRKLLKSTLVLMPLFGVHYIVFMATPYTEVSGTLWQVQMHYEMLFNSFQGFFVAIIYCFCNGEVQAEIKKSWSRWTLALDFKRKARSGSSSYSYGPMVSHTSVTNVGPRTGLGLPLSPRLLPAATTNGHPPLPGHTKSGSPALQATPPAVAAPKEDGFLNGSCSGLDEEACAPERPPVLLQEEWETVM
# Procedure: as §2, §3
# [3] = molecular target: T3, adenylate cyclase (PTH receptor) in human SaOS-2/B10 cells (Homo sapiens, UniProt Q03431); experiment: Adenylate cyclase assay, human osteosarcoma B10 cell line (SaOS-2/B10); assay type: cell-based; conditions: mean ± SEM, at least three experiments
# T3 construct: endogenous in cells; host or cells: SaOS-2/B10 human osteosarcoma cells
# T3 sequence (Q03431 27-593): T1 sequence (Q03431 27-593)
# Procedure: as §1, §2, §3
# [4] = molecular target: T4, adenylate cyclase (PTH receptor) in bovine renal cortical membranes (Bos taurus, UniProt Q1LZF7); experiment: Adenylate cyclase assay, bovine renal cortical membranes; assay type: biochemical; conditions: mean ± SEM, at least three experiments
# T4 construct: from tissue; host or cells: bovine renal cortical membranes
# T4 sequence (Q1LZF7 29-589): T2 sequence (Q1LZF7 29-589)
# Procedure: as §2, §3
Ki [1],Ki [2],"Ki ([3]; antagonizing 0.25 nM [Nle8,18,Tyr34]bPTH(1-34)NH2 (footnote b))","Ki ([4]; antagonizing 3 nM [Nle8,18,Tyr34]bPTH(1-34)NH2 (footnote d))",Km [3],Km [4],Substance
2.4 ± 0.5 nM,2 ± 0.1 nM,2.8 ± 1 nM,22 ± 5 nM,–,–,"Ac[Cys^8 (S-2'-(N-succinyl-β-alanyl-3-idotyramide), Leu^11, D-Trp^12 ]-PTHrP(8-34)NH2 [analog 2A]"
4.2 ± 0.7 nM,14 ± 2 nM,–,–,0.5 ± 0.04 nM,36 ± 7 nM,[Cys^35 (S-2'-(N-succinyl-β-alanyl-3-iodotyramide)]PTHrP (1-35)NH2 [analog 1A]
1.7 ± 0.2 nM,2 ± 0.2 nM,–,–,0.5 ± 0.06 nM,6.4 ± 0.7 nM,"[Nle^8,18,Lys^13 (ε-Biotinyl),Tyr^34,Cys^35 (S-2'-(N-succinyl-β-alanyl-3-iodotyramide)]bPTH(1-35)NH2 [analog 3A]"
